Measured values: patent US20210278408A1, “METHODS OF TREATMENT OF CANCER WITH SUBSTITUTED PYRROLE AND PYRAZOLE COMPOUNDS AND DIAGNOSIS OF CANCERS SUSCEPTIBLE TO TREATMENT WITH SUBSTITUTED PYRROLE AND PYRAZOLE COMPOUNDS” (Bantam Pharmaceutical, LLC, priority 2018, published 2021)

Experiments:
BJAB = assay: Cell proliferation, Cell-Titre Glo, 72 hours: BJAB; format: cell-based; conditions: Homo sapiens, mean ± std. dev.
Description: (§1) NHLF, BJAB, SU-DHL-2, and HCT-116 cells were treated with Compound A197 for 4 hours prior to lysate harvest. Total cellular glutathione (GSH) levels were determined using a luminescent endpoint (GSH-Glo, Promega). Cell proliferation was determined using Cell-Titre Glo following 72 hours of compound treatment. All data shown is mean±SD of three biological replicates.

[1] = system: ATF4, ATF6, ERN1/XBP1 and cell cycle regulated genes; assay: mRNA expression profiling by QPCR in NHLF, HCT-116, HAP1 and SU-DHL-2; format: cell-based, human; conditions: 5 μM, 8 hrs
Description: FIG. 11 is a graph of expression of ATF4, ATF6, Xbp1, and cell cycle regulated genes in Compound A197 responsive cell lines. All cells were treated with 5 […] Compound A197 for 8 hrs, then RNA was isolated and specific gene expression determined by qPCR. All data are represented as Log2 Fc. *=p<0.05, n=3.
ATF4-mediated gene expression profile is induced by compounds. ATF4 activation is closely aligned with activation of ER stress and the related TF's ATF6, ERN1 and XBP1. To determine the role of each transcription factor, a set of fifteen genes were selected to evaluate the specificity of the response as related ATF4 and to other transcription factors. […] These genes can be regulated in a variety of ways and so reflect an outcome of compound action: cell cycle arrest.
Four cell lines were chosen for gene expression profiling. Normal Human Lung Fibroblasts were chosen as an example of a non-responsive cell line. The colorectal cancer cell line HCT-116 and the chronic myelogenous leukemia line HAP1 were chosen as examples of cell lines responsive to compound undergoing growth arrest. The diffuse large B-Cell lymphoma line SU-DHL-2 was chosen as a cell line undergoing growth arrest and apoptosis. […] RNA recovery is determined using a NanoDrop nucleic acid quantification device. […] The change in gene expression relative to vehicle is calculated using Expression Analysis software (ThermoFisher).

HCT-116 = assay: Cell proliferation, Cell-Titre Glo, 72 hours: HCT-116; format: cell-based; conditions: Homo sapiens, mean ± std. dev.
Description: as §1

In the case of `Cc1nn(-c2nc(-c3ccc(C(F)(F)F)cc3)c(SC(C)C)s2)c(C(=O)O)c1-c1cccc(F)c1` [Compound A197, 4-(3-fluorophenyl)-1-(5-(isopropylthio)-4-(4-(trifluoromethyl)phenyl)thiazol-2-yl)-3-methyl-1H-pyrazole-5-carboxylic acid], the IC50 (BJAB) is reported as 295 ± 110 nM, the “CDKN1A (p21/Waf1) mRNA expression” value [1] is reported as “increased” and the “induction of ATF4, ATF6 or IRE1/Xbp1 regulated genes” value ([1]; HCT-116, HAP-1, SU-DHL-2, NHLF) is reported as “preferentially induces ATF4, but not ATF6 or IRE1/Xbp1 regulated genes in three responsive tumor cell lines (HCT-116, HAP-1 and SU-DHL-2) but not in primary NHLF”. The IC50 (HCT-116) was 530 ± 210 nM.
